# Experimental data from paper PMC9571290, “Preliminary Structure–Activity Relationship Study of the MMV Pathogen Box Compound MMV675968 (2,4-Diaminoquinazoline) Unveils Novel Inhibitors of Trypanosoma brucei brucei” (Molecules, 2022).
# Like-named read-outs stand apart in the source and are kept apart here.
# Assays:
# in vitro = conditions: African green monkey
# Experimental: (§1) The resulting pellet was resuspended and counted in a Neubauer chamber in the presence of trypan blue to exclude nonviable cells colored in blue. Once the cell load was estimated, they were either used for the next passage in a new flask or processed for the cytotoxicity assay.
# (§2) Briefly, Vero cells at a density of 10^4 cells per well were plated in 100 µL of complete DMEM and incubated overnight to allow cell attachment. Plates were then controlled under an inverted fluorescence microscope (Lumascope LS520) to ensure adherence, sterility and cell integrity. Thereafter, culture medium from each well was carefully emptied, and plates were filled with 90 µL of fresh complete medium followed by the addition of 10 µL of serial 5-fold dilutions of compound solutions. […] Fluorescence was then read using a Magelan Infinite M200 fluorescence multiwell plate reader (Tecan) with excitation and emission wavelengths of 530 and 590 nm, respectively. The percentage of cell viability was calculated from readouts, and the median cytotoxic concentration (CC50) for each compound was deduced from concentration–response curves using GraphPad Prism 8.0 software as described above. Selectivity indexes were then determined for each test substance as follows: SI = CC50(Vero cells)/IC50(T. brucei brucei).
# [1] = system: bloodstream forms of Trypanosoma brucei brucei; assay: resazurin-based antitrypanosomal inhibition assay; assay type: cell-based; conditions: for pIC50 T. b. b.: Table 3
# Experimental: Parasites were axenically cultivated in sterile vented flasks containing complete Hirumi’s modified Iscove’s medium 9 (HMI-9) [500 mL IMDM (Iscove’s modified Dulbecco’s medium) (Gibco, Waltham, MA, USA) supplemented with 10% (v/v) heat-inactivated fetal bovine serum (HIFBS) (Sigma Aldrich), 10% (v/v) serum plus (Sigma Aldrich), HMI-9 supplement (1 mM hypoxanthine, 0.16 mM thymidine, 50 µM bathocuproine disulfonic acid, 1.5 mM cysteine, 1.25 Mm pyruvic acid, 0.2 mM 2-mercaptoethanol (Sigma Aldrich)), and 1% (v/v) penicillin–streptomycin (Sigma Aldrich) and incubated at 37 °C in a 5% CO2 atmosphere.
# The in vitro inhibitory potency of the 400 MMVPB compounds against bloodstream forms of Trypanosoma brucei brucei was evaluated using the resazurin-based inhibition assay as previously described. Briefly, parasites at their mid-logarithmic growth phase were counted, and the cell density was adjusted with fresh complete HMI-9 medium to 2 × 10^5 trypanosomes per mL. Then, 90 µL of parasite suspension was then distributed into the wells of 96-well flat-bottomed plates containing 10 µL of compounds for a final test concentration of 10 µM. […] Each assay plate was set up in duplicate and repeated two times. The percent parasite inhibition was determined for each compound based on fluorescence readouts relative to the mean fluorescence of negative control wells.
# y = 100/[1+ 10^(logIC50/99-x)H], where H is the hill coefficient or slope factor [60].
# Vero cells = assay: cytotoxicity against Vero cells (resazurin viability assay); conditions: read-out: CC50 Vero; Table 3
# Experimental: as §1, §2
# [2] = Trypanosoma brucei, Table 4, analogs of MMV675968, solid material, read-out: IC50 ± SD T. b. b.
# [3] = Trypanosoma brucei, Table 4, negative log of IC50 in molar, read-out: pIC50 T. b. b. (converted)
# [4] = Table 3, MMVPB compounds with known potency against other diseases, read-out: IC50 ± SD T. b. b.
smiles,measurement,setting,value
COc1ccc(NCc2ccc3nc(N)nc(N)c3c2Cl)cc1OC [Analog 2],CC50 at 48 h,in vitro,18.2 ± 3.08 µM
same,IC50,[1]; [2],2400 ± 70 nM
same,IC50,[1]; [3],2400 nM
COc1ccccc1NCc1ccc2nc(N)nc(N)c2c1Cl [Analog 3],CC50 at 48 h,in vitro,20.4 ± 0.7 µM
same,IC50,[1]; [2],3200 ± 30 nM
same,IC50,[1]; [3],3240 nM
COc1ccc(NCc2ccc3nc(N)nc(N)c3c2Cl)cc1 [Analog 4],CC50 at 48 h,in vitro,16.9 ± 0.2 µM
same,IC50,[1]; [2],2500 ± 150 nM
same,IC50,[1]; [3],2510 nM
"COc1cc(NC(C)CCCN)c2ncccc2c1 (stereo not drawn) [MMV000023, Primaquine, reference compound]",IC50,"[1]; Trypanosoma brucei, Table 1, reference drugs included in MMVPB, read-out: IC50 ± SD T. b. b.",8400 ± 10 nM
same,IC50,"[1]; Trypanosoma brucei, Table 1, negative log of IC50 in molar, read-out: pIC50 T. b. b. (converted)",8510 nM
"CNCCC(Oc1ccc(C(F)(F)F)cc1)c1ccccc1 (stereo not drawn) [MMV001561, fluoxetine, reference compound]",CC50 at 48 h,in vitro,41.5 ± 1 µM
CN(C)c1cc(NC(=O)Nc2ccccc2)c2ccccc2n1 [MMV006901],CC50,Vero cells,14.6 ± 0.02 µM
same,IC50,[1]; [4],8450 ± 50 nM
same,pIC50 T. b. b.,[1]; negative log of IC50 in molar,5.07
COc1cc(-c2cc(-c3ccc(S(C)(=O)=O)cc3)cnc2N)ccc1O [MMV010576],CC50,Vero cells,> 100 µM
same,IC50,[1]; [4],1500 ± 300 nM
same,pIC50 T. b. b.,[1]; negative log of IC50 in molar,5.82
COc1ccc(CCN2CCC(NCc3cccc(N(C)C)c3)CC2)cc1 [MMV011511],CC50,Vero cells,> 100 µM
same,IC50,[1]; [4],8940 ± 700 nM
same,pIC50 T. b. b.,[1]; negative log of IC50 in molar,5.05
Cc1cc(Nc2ccncc2)n2nc(C)c(-c3ccccc3Cl)c2n1 [MMV016136],IC50,[1]; [4],8610 ± 300 nM
same,pIC50 T. b. b.,[1]; negative log of IC50 in molar,5.06
COc1ccc(-c2cncc3ccc(C(=O)NCCCn4ccnc4)nc23)cc1 [MMV020670],IC50,[1]; [4],1900 ± 20 nM
same,pIC50 T. b. b.,[1]; negative log of IC50 in molar,5.72
CN1CCC(NCc2cccc(-c3ccc(S(=O)(=O)NCc4ccccc4)cc3)c2)CC1 [MMV022029],CC50,Vero cells,13.1 ± 0.2 µM
same,IC50,[1]; [4],1700 ± 700 nM
same,pIC50 T. b. b.,[1]; negative log of IC50 in molar,5.76
O=C(Nc1ccc(N2CCNCC2)cc1)c1ccn2ncc(-c3cccc(Cl)c3)c2n1 [MMV022478],CC50,Vero cells,11.42 ± 0.07 µM
same,IC50,[1]; [4],1700 ± 10 nM
same,pIC50 T. b. b.,[1]; negative log of IC50 in molar,5.76
Nc1nccc2ccc(-c3ccc4nccn4c3)cc12 [MMV023233],CC50,Vero cells,29.8 ± 0.7 µM
same,IC50,[1]; [4],8430 ± 60 nM
same,pIC50 T. b. b.,[1]; negative log of IC50 in molar,5.07
c1cncc(NCc2ccc(-c3cc4ccncc4cc3OC3CCNCC3)s2)c1 [MMV023969],CC50,Vero cells,26.3 ± 0.4 µM
same,IC50,[1]; [4],8090 ± 300 nM
same,pIC50 T. b. b.,[1]; negative log of IC50 in molar,5.09
O=C(Nc1ccccc1)c1ccc(-c2cc3ccncc3cc2OC2CCNCC2)s1 [MMV024035],CC50,Vero cells,35.75 ± 0.08 µM
same,IC50,[1]; [4],1800 ± 100 nM
same,pIC50 T. b. b.,[1]; negative log of IC50 in molar,5.74
Cc1ccc2[nH]c(C3CCCNC3)c(-c3ccncc3)c2c1 (stereo not drawn) [MMV024311],IC50,[1]; [4],9780 ± 200 nM
same,pIC50 T. b. b.,[1]; negative log of IC50 in molar,5.00
O=C(Nc1ccc(N2CCNCC2)nc1)c1oc(-c2ccccc2)nc1C(F)(F)F [MMV024937],CC50,Vero cells,14.6 ± 0.6 µM
same,IC50,[1]; [4],1400 ± 500 nM
same,pIC50 T. b. b.,[1]; negative log of IC50 in molar,5.85
OCCc1ccc(Nc2nccc(-c3nnc4ccccn34)n2)cc1 [MMV028694],CC50,Vero cells,10.36 ± 0.1 µM
same,IC50,[1]; [4],1800 ± 100 nM
same,pIC50 T. b. b.,[1]; negative log of IC50 in molar,5.74
CC(=O)N1CCc2cc3nc(C)cc(C)c3cc21 [MMV054312],CC50,Vero cells,> 100 µM
same,IC50,[1]; [4],1290 ± 420 nM
same,pIC50 T. b. b.,[1]; negative log of IC50 in molar,5.88
Cc1cc(C)nc(-n2nc(C)cc2Nc2ccccc2)n1 [MMV062221],IC50,[1]; [4],1700 ± 600 nM
same,pIC50 T. b. b.,[1]; negative log of IC50 in molar,5.76
O=C(C(Cc1c[nH]c2ccccc12)NS(=O)(=O)c1ccc(Cl)cc1)N1CCCCC1 (stereo not drawn) [MMV085210],CC50,Vero cells,> 100 µM
same,IC50,[1]; [4],900 ± 100 nM
CCOC(=O)c1c(NC(=O)c2c(F)c(F)c(F)c(F)c2F)sc(C(N)=O)c1C [MMV153413],CC50,Vero cells,> 100 µM
same,IC50,[1]; [4],1700 ± 100 nM
same,pIC50 T. b. b.,[1]; negative log of IC50 in molar,5.76
CC(C)(C)c1cnc(NC(=O)c2ccccc2O)s1 [MMV495543],IC50,[1]; [4],700 ± 250 nM
Brc1cncc(-c2cc(NCCCn3ccnc3)nc(-c3ccccc3)n2)c1 [MMV661713],CC50,Vero cells,> 100 µM
same,IC50,[1]; [4],1900 ± 20 nM
same,pIC50 T. b. b.,[1]; negative log of IC50 in molar,5.72
O=C(NCCN1CCCC1)c1cc(NCCCCN2CCC(F)(F)CC2)nc2ccc(Cl)cc12 [MMV667494],CC50,Vero cells,> 100 µM
same,IC50,[1]; [4],1300 ± 500 nM
same,pIC50 T. b. b.,[1]; negative log of IC50 in molar,5.88
COc1ccc(N(CCc2cccc(C)n2)C(=O)C2CCCCC2)cc1 [MMV675996],IC50,[1]; [4],800 ± 20 nM
CC(Oc1ccccc1)C(=O)Nc1nc(-c2ccccn2)cs1 (stereo not drawn) [MMV676411],IC50,[1]; [4],9440 ± 90 nM
same,pIC50 T. b. b.,[1]; negative log of IC50 in molar,5.02
O=C(Nc1nc(-c2ccccn2)cs1)c1cncn1-c1ccccc1 [MMV676512],IC50,[1]; [4],1900 ± 70 nM
same,pIC50 T. b. b.,[1]; negative log of IC50 in molar,5.72
NC(=O)c1cc(-c2ccsc2)ccc1OCCOc1ccccc1 [MMV687138],CC50,Vero cells,> 100 µM
same,IC50,[1]; [4],500 ± 10 nM
Nc1nc2cc(-c3cncc(Oc4ccc(F)cc4)c3)ccc2[nH]1 [MMV687248],CC50,Vero cells,> 100 µM
same,IC50,[1]; [4],500 ± 70 nM
Cn1c(=O)c2c(S(C)(=O)=O)snc2n(C)c1=O [MMV687251],CC50,Vero cells,6.4 ± 2 µM
same,IC50,[1]; [4],1900 ± 10 nM
same,pIC50 T. b. b.,[1]; negative log of IC50 in molar,5.72
COc1cccc(-c2nc3c(N4CCCC4)cccc3n2CC2CCCN2)n1 (stereo not drawn) [MMV687703],CC50,Vero cells,> 100 µM
same,IC50,[1]; [4],1700 ± 60 nM
same,pIC50 T. b. b.,[1]; negative log of IC50 in molar,5.76
Cc1cnc(N2CCN[C@@H](Cc3ccccc3)C2)nc1Oc1ccc(-n2ccnc2)cc1 [MMV687765],CC50,Vero cells,> 100 µM
same,IC50,[1]; [4],2300 ± 300 nM
same,pIC50 T. b. b.,[1]; negative log of IC50 in molar,5.64
O=C(Nc1ccc(C(F)(F)F)c(C(F)(F)F)c1)c1cc(Cl)ccc1O [MMV687807],CC50,Vero cells,11 ± 1.3 µM
same,IC50,[1]; [4],500 ± 40 nM
CN1CCN(CCCOc2ncc(Nc3ncc(-c4ccc(C(F)(F)F)c(F)c4)nc3C(N)=O)cn2)CC1 [MMV687812],CC50,Vero cells,2.66 ± 0.3 µM
same,IC50,[1]; [4],1700 ± 100 nM
same,pIC50 T. b. b.,[1]; negative log of IC50 in molar,5.76
CCc1ccc(S(=O)(=O)Nc2cc(CN3CCN(CCC(C)C)CC3)ccc2C)cc1 [MMV688124],CC50,Vero cells,> 100 µM
same,IC50,[1]; [4],2900 ± 80 nM
same,pIC50 T. b. b.,[1]; negative log of IC50 in molar,5.53
CC(C)n1nc(-c2cc3c(Cl)cccc3[nH]2)c2c(N)ncnc21 [MMV688417],CC50,Vero cells,13.6 ± 2.9 µM
same,IC50,[1]; [4],4380 ± 900 nM
same,pIC50 T. b. b.,[1]; negative log of IC50 in molar,5.36
CN1CCC(c2cc(-c3ccncc3)c(-c3ccc(F)cc3)[nH]2)CC1 [MMV688703],IC50,[1]; [4],3180 ± 1300 nM
same,pIC50 T. b. b.,[1]; negative log of IC50 in molar,5.49
CS(=O)(=O)c1ccc(C(=O)N(CC2CCCO2)c2nc3ccccc3s2)cc1[N+](=O)[O-] (stereo not drawn) [MMV688761],CC50,Vero cells,> 100 µM
same,IC50,[1]; [4],8330 ± 90 nM
same,pIC50 T. b. b.,[1]; negative log of IC50 in molar,5.08
CNc1nnc(Sc2cnn(-c3ccccc3)c(=O)c2Cl)s1 [MMV688763],CC50,Vero cells,8.14 ± 0.01 µM
same,IC50,[1]; [4],800 ± 100 nM
Cc1[nH]c2ccccc2c1C(c1cccs1)N1CCN(C)CC1 (stereo not drawn) [MMV688768],CC50,Vero cells,> 100 µM
same,IC50,[1]; [4],8360 ± 80 nM
same,pIC50 T. b. b.,[1]; negative log of IC50 in molar,5.07
CCOc1ccc2cc(-c3nn(CC4CCN(C)CC4)c4ncnc(N)c34)ccc2c1 [MMV688854],CC50,Vero cells,13.4 ± 1.5 µM
same,IC50,[1]; [4],8500 ± 60 nM
same,pIC50 T. b. b.,[1]; negative log of IC50 in molar,5.07
"COc1cc([C@@H]2c3cc4c(cc3[C@H](O)[C@H]3COC(=O)[C@H]23)OCO4)cc(OC)c1OC [Podophyllotoxin, reference compound]",CC50 at 48 h,in vitro,0.43 ± 0.14 µM
